According to ChEMBL document CHEMBL2016442, “Structure-activity studies of some berberine analogs as inhibitors of Toxoplasma gondii” (Bioorg Med Chem Lett, 2012):

Legend:
Toxoplasma gondii [1] = test: Antiparasitic activity against Toxoplasma gondii ATCC 50839 infected in human fibroblasts assessed as inhibition of replication of tachyzoites after 4 days by bacterial beta-galactosidase assay; assay type: functional; conditions: ATCC 50839, 96 h, read-out: ID50 (the source's name)
[2] = Cytotoxicity against human fibroblasts assessed as cell viability by microplate reader; assay type: cell-based, Fibroblast; conditions: read-out: TD50 (the source's name)
[3] = Therapeutic index, ratio of TD50 for human fibroblast cell to ID 50 for Toxoplasma gondii ATCC 50839; assay type: cell-based; conditions: human fibroblast cells, read-out: TI
Toxoplasma gondii [4] = test: Ratio of trimethoprim ID50 to compound ID50 for Toxoplasma gondii ATCC 50839; assay type: functional

Compound	IC50 (Toxoplasma gondii [1])	CC50 [2]	selectivity ratio [3]	Ratio (Toxoplasma gondii [4])
CCCC(=O)Oc1c(OC)ccc2cc3[n+](cc12)CCc1cc2c(cc1-3)OCO2	0.068 µM	135 µM	2000	
COc1ccc2c(c1OC)C(C)N1CCc3cc4c(cc3C1=C2)OCO4 (stereo not given)	4.2 µM	12 µM	3	
CCOc1c(OC)ccc2cc3[n+](cc12)CCc1cc2c(cc1-3)OCO2	0.83 µM	9.6 µM	12	
CCCCCOc1c(OC)ccc2cc3[n+](cc12)CCc1cc2c(cc1-3)OCO2	1.8 µM	5.9 µM	3	
CCCCCCCOc1c(OC)ccc2cc3[n+](cc12)CCc1cc2c(cc1-3)OCO2	0.2 µM	1.1 µM	5.5	
COc1ccc2cc3[n+](cc2c1OC(C)=O)CCc1cc2c(cc1-3)OCO2	0.075 µM	45 µM	600	
CCCCCC(=O)Oc1c(OC)ccc2cc3[n+](cc12)CCc1cc2c(cc1-3)OCO2	0.036 µM	145 µM	4000	
COc1ccc2cc3[n+](cc2c1OC)CCc1cc2c(cc1-3)OCO2 [BERBERINE]	0.58 µM	0.85 µM	1.5	30
COc1ccc2cc3[n+](cc2c1O)CCc1cc2c(cc1-3)OCO2 [BERBERRUBINE]	0.06 µM	81 µM	1300	
COc1ccc2c(c1OC)CN1CCc3cc4c(cc3[C@@H]1C2)OCO4 [CANADINE]	8.7 µM	210 µM	24	
COc1ccc2c(c1OC)CN1CCc3cc4c(cc3C1=C2)OCO4 [DIHYDROBERBERINE]	0.65 µM	41 µM	63	
COc1ccc2cc3n(c(=O)c2c1OC)CCc1cc2c(cc1-3)OCO2 [OXYBERBERINE]	12 µM	97 µM	8	
COc1cc(Cc2cnc(N)nc2N)cc(OC)c1OC [TRIMETHOPRIM]	15 µM	> 500 µM	> 3	
